Measured values as given in paper PMC11593036, “Comparative Characterization of Three Homologous Glutathione Transferases from the Weed Lolium perenne” (Foods, 2024).
Changes are numbered by the printed parent chain.

Experiments:
Assay in all cases: steady-state kinetics
Format in all cases: biochemical
[1] = target: T1, LpGSTU5 (Lolium perenne, UniProt A0A165FYU2); details: co-substrate GSH; sigmoid, positive cooperativity between the two H-sites; read-out: Km (mM) (CDNB)
T1 construct: gene GST; full-length cDNA from leaf mRNA in pEXP5-CT/TOPO, E. coli BL21(DE3), GSH-Sepharose; reverse primer carries stop codon (no C-terminal tag); primer-encoded N-terminus MASEKSS
T1 sequence (A0A165FYU2 1-226): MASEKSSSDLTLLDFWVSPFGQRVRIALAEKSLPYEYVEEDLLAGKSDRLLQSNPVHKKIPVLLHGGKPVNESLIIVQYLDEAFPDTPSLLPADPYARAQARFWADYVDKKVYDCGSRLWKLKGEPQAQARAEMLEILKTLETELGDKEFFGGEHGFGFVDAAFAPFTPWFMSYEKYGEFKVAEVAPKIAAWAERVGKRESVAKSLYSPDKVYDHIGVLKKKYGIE
From the text: steady-state kinetics on LpGSTU5

[2] = target: T2, LpGSTU25 (Lolium perenne, UniProt A0A165FYR3, F215Y); details: co-substrate GSH; read-out: Km (mM) (CDNB)
T2 construct: gene GST; full-length cDNA from leaf mRNA in pEXP5-CT/TOPO, E. coli BL21(DE3), GSH-Sepharose; reverse primer carries stop codon (no C-terminal tag); primer-encoded N-terminus MASEKSS
T2 sequence (A0A165FYR3 1-226 F215Y): T1 sequence (A0A165FYU2 1-226) with V56A, L122F, R131K, H215Y, K221Q
From the text: (§1) steady-state kinetics on LpGSTU25

[3] = target: T3, LpGSTU25 (Lolium perenne, UniProt A0A165FYR3, F215H); details: co-substrate GSH; read-out: Km (mM) (CDNB)
T3 construct: gene GST; full-length cDNA from leaf mRNA in pEXP5-CT/TOPO, E. coli BL21(DE3), GSH-Sepharose; reverse primer carries stop codon (no C-terminal tag); primer-encoded N-terminus MASEKSS
T3 sequence (A0A165FYR3 1-226 F215H): T1 sequence (A0A165FYU2 1-226) with V56A, L122F, R131K, K221Q
From the text: as §1

[4] = target: T4, LpGSTU25 (Lolium perenne, UniProt A0A165FYR3, F215L); details: co-substrate GSH; read-out: Km (mM) (CDNB)
T4 construct: gene GST; full-length cDNA from leaf mRNA in pEXP5-CT/TOPO, E. coli BL21(DE3), GSH-Sepharose; reverse primer carries stop codon (no C-terminal tag); primer-encoded N-terminus MASEKSS
T4 sequence (A0A165FYR3 1-226 F215L): T1 sequence (A0A165FYU2 1-226) with V56A, L122F, R131K, H215L, K221Q
From the text: as §1

[5] = target: T5, LpGSTU25 (Lolium perenne, UniProt A0A165FYR3, F215K); details: co-substrate GSH; read-out: Km (mM) (CDNB)
T5 construct: gene GST; full-length cDNA from leaf mRNA in pEXP5-CT/TOPO, E. coli BL21(DE3), GSH-Sepharose; reverse primer carries stop codon (no C-terminal tag); primer-encoded N-terminus MASEKSS
T5 sequence (A0A165FYR3 1-226 F215K): T1 sequence (A0A165FYU2 1-226) with V56A, L122F, R131K, H215K, K221Q
From the text: as §1

[6] = target: T6, LpGSTU25 (Lolium perenne, UniProt A0A165FYR3, F215V); details: co-substrate GSH; read-out: Km (mM) (CDNB)
T6 construct: gene GST; full-length cDNA from leaf mRNA in pEXP5-CT/TOPO, E. coli BL21(DE3), GSH-Sepharose; reverse primer carries stop codon (no C-terminal tag); primer-encoded N-terminus MASEKSS
T6 sequence (A0A165FYR3 1-226 F215V): T1 sequence (A0A165FYU2 1-226) with V56A, L122F, R131K, H215V, K221Q
From the text: as §1

[7] = target: T7, LpGSTU25 (Lolium perenne, UniProt A0A165FYR3, F215S); details: co-substrate GSH; read-out: Km (mM) (CDNB)
T7 construct: gene GST; full-length cDNA from leaf mRNA in pEXP5-CT/TOPO, E. coli BL21(DE3), GSH-Sepharose; reverse primer carries stop codon (no C-terminal tag); primer-encoded N-terminus MASEKSS
T7 sequence (A0A165FYR3 1-226 F215S): T1 sequence (A0A165FYU2 1-226) with V56A, L122F, R131K, H215S, K221Q
From the text: as §1

[8] = target: T8, LpGSTU25 (Lolium perenne, UniProt A0A165FYR3, F215T); details: co-substrate GSH; read-out: Km (mM) (CDNB)
T8 construct: gene GST; full-length cDNA from leaf mRNA in pEXP5-CT/TOPO, E. coli BL21(DE3), GSH-Sepharose; reverse primer carries stop codon (no C-terminal tag); primer-encoded N-terminus MASEKSS
T8 sequence (A0A165FYR3 1-226 F215T): T1 sequence (A0A165FYU2 1-226) with V56A, L122F, R131K, H215T, K221Q
From the text: as §1

[9] = target: T9, LpGSTU25 (Lolium perenne, UniProt A0A165FYR3, F215R); details: co-substrate GSH; read-out: Km (mM) (CDNB)
T9 construct: gene GST; full-length cDNA from leaf mRNA in pEXP5-CT/TOPO, E. coli BL21(DE3), GSH-Sepharose; reverse primer carries stop codon (no C-terminal tag); primer-encoded N-terminus MASEKSS
T9 sequence (A0A165FYR3 1-226 F215R): T1 sequence (A0A165FYU2 1-226) with V56A, L122F, R131K, H215R, K221Q
From the text: as §1

[10] = target: T10, LpGSTU25 (Lolium perenne, UniProt A0A165FYR3); details: co-substrate GSH; read-out: Km (mM) (CDNB)
T10 construct: gene GST; full-length cDNA from leaf mRNA in pEXP5-CT/TOPO, E. coli BL21(DE3), GSH-Sepharose; reverse primer carries stop codon (no C-terminal tag); primer-encoded N-terminus MASEKSS
T10 sequence (A0A165FYR3 1-226): T1 sequence (A0A165FYU2 1-226) with V56A, L122F, R131K, H215F, K221Q
From the text: as §1

[11] = target: T11, LpGSTU2 (Lolium perenne, UniProt A0A165FYT0); details: co-substrate GSH; read-out: Km (mM) (CDNB)
T11 construct: gene GST; full-length cDNA from leaf mRNA in pEXP5-CT/TOPO, E. coli BL21(DE3), GSH-Sepharose; reverse primer carries stop codon (no C-terminal tag); primer-encoded N-terminus MASEKSS
T11 sequence (A0A165FYT0 1-226): T1 sequence (A0A165FYU2 1-226) with S32N, D48E, A93S, S117T
From the text: steady-state kinetics on LpGSTU2

O=[N+]([O-])c1ccc(Cl)c([N+](=O)[O-])c1 [CDNB]
Km [1]: 0.1 ± 0.04 mM | Km [2]: 0.91 ± 0.12 mM | Km [3]: 0.68 ± 0.08 mM | Km [4]: 0.25 ± 0.02 mM | Km [5]: 0.77 ± 0.07 mM | Km [6]: 0.29 ± 0.02 mM | Km [7]: 0.33 ± 0.03 mM | Km [8]: 0.31 ± 0.03 mM | Km [9]: 0.92 ± 0.32 mM | Km [10]: 0.28 ± 0.03 mM | Km [11]: 0.47 ± 0.03 mM
